# Measured values taken from patent US5972598A, “Methods for preventing multidrug resistance in cancer cells” (priority 1995, dated 1999).
# Entries after “also recorded” stand apart in the source; their conditions may differ. Where two headings read alike, the source gives them in different places.
# Experiments:
# MDR1 [1] = test: Inhibition of cytotoxic drug (Ara-C) induced MDR1 expression by protein kinase inhibitors; assay type: cell-based, human; conditions: for inhibition of Ara-C induced MDR1 expression: 5 μM
# Experimental: FIG. 5. Effect of protein kinase inhibitors on MDR1 mRNA induction by cytotoxic drugs in H9 cells. […]
# (Commercially-available kits (for example, from GIBCO/BRL, Gaithersburg, Md.) can be advantageously modified for making cDNA using random hexamers.) PCR is then performed using the following primers: […]
# (§1) (where β2 M represents β2 microglobulin). PCR was performed for β2 M experiments under a regime consisting of 1 cycle comprising denaturation at 94° C. for 3 minutes, primer annealing at 60° C. for 30 seconds, and primer extension at 72° C. for 1 minute, followed by 19 cycles comprising denaturation at 94° C. for 30 seconds, primer annealing at 60° C. for 30 seconds, and primer extension at 72° C. for 1 minute, followed by a final cycle comprising denaturation at 94° C. for 30 seconds, primer annealing at 60° C. for 30 seconds, and primer extension at 72° C. for 5 minutes. MDR1 cDNA sequences were amplified using the identical protocol as for β2 M, but extending the amplification from 19 cycles to 25 cycles. In addition, the cDNA-PCR amplification protocol contained the following modifications: (i) Taq DNA polymerase was added to the PCR mixtures after initial heating of the samples to 94° C. (ii) The yield of the β2 -microglobulin-specific band, obtained after 22-28 cycles of PCR, was used as the primary criterion for equalizing the starting amounts of the cDNA templates in different preparations, in order to account for differential RNA degradation in cells subjected to different types of treatment. […] PCR products were detected by autoradiography.
# Cells were plated in 6-well Falcon tissue culture plates at 3,300 cells per well, and incubated in the appropriate concentrations of drugs. Each of the protein kinase inhibitors to be tested were added at their appropriate final concentrations 45 minutes prior to MDR1 induction by the addition of Ara-C or TPA, with the exception of herbimycin A, which was added 12 hours prior to Ara-C or TPA, and tyrphostins A25 and B46, which were each added 16 hours prior to MDR1 induction by the addition of Ara-C or TPA. Cells were incubated overnight (TPA) or for 10 hours (Ara-C) at 37° C. under an atmosphere of 5% CO2 after the addition of the MDR1 inducing agents before harvesting for cDNA-PCR analysis.
# In addition to these conditions, the analysis of certain drugs imposed added requirements. For experiments using calphostin C, cells were incubated under direct white light illumination. For experiments using D,L-threo-sphingosine, the cell culture medium was pre-treated with the appropriate concentration of the drug for one hour at 37° C. with continuous gentle mixing. After this pre-treatment, cells were resuspended in media supplemented with drug and incubated for 45 minutes as described above.
# cDNA-PCR analyses on each culture treated with drugs, or in control cultures incubated in the absence or presence of Ara-C or TPA alone, were performed as described in Section 6.1.3 above.
# To further evaluate the capacity of protein kinase inhibitors to suppress MDR1 induction by cytotoxic drugs and PKC agonists, H-9 human T cell leukemia cells were used in cDNA-PCR assays to examine induced MDR1 mRNA expression levels in the presence of such protein kinase inhibitors.
# H9 cells = test: Cellular toxicity in H9 cells; conditions: concentrations higher than 5 μM
# [2] = clinical trials; cited from earlier work
# protein kinase A = conditions: Hidaka et al., 1984; cited from earlier work
# PKC = conditions: Hidaka et al., 1984; cited from earlier work
# protein kinases = conditions: 10-fold weaker than H7; Pelosin et al., 1990; cited from earlier work
# MDR1 [3] = test: cDNA-PCR / flow cytometric analysis of MDR1 induction by PKC agonists; assay type: cell-based, human
# Experimental: (§2) Neomycin sulfate (Calbiochem) was dissolved in sterile, deionized water.
# (§3) P-glycoprotein expression on the cell surface was analyzed using a P-glycoprotein-specific mouse IgG2a monoclonal antibody (mAB) UIC2 (Mechetner and Roninson, 1992, Proc. Natl. Acad. Sci. USA 89:5824-5828). Mouse IgG2a isotype control antibody was obtained from Sigma. For staining of PBL with UIC2 mAB or isotype control, 10^6 cells were stained at 4° C. with 10 μg of the antibody for 30 minutes and, after two washes, stained for 30 minutes with 10 μg of FITC-conjugated goat anti-mouse IgG2a antibody (Fisher Scientific, Fairlawn, N.J.), diluted 1:2 with PBS plus 2% FCS. Cells were then washed twice with ice-cold PBS plus 2% FCS, stained with PI and kept on ice until analysis. Essentially the same protocol was used for staining of other cell types except that 2 μg of the secondary antibody were used per 10^6 cells. In some experiments, phycoerythrine (PE)-conjugated goat anti-mouse IgG2a was used as the secondary antibody; no PI was added in such cases. Flow cytometric analysis was conducted on a Coulter Epics 753 Flow Cytometer.
# (§4) RNA was extracted from approximately 10^6 cells by a small-scale sodium dodecyl sulfate extraction procedure (Peppel and Baglioni, 1990, BioTechniques 9:711-713). In the alternative, RNA was isolated from cells using the TRIzol method (commercially available from GIBCO/BRL). cDNA synthesis and polymerase chain reaction (PCR) amplification of MDR1 and β2 -microglobulin cDNA sequences were carried out essentially as described (Noonan et al., 1990, Proc. Natl. Acad. Sci. USA 87:7160-7164; Noonan and Roninson, 1991, pp. 319-333 In Roninson (Ed.), Molecular and Cellular Biology of Multidrug Resistance in Tumor Cells, Plenum Press, New York). Briefly, cDNA was prepared using the method of Krug and Berger (1987, Meth. Enzymol. 152: 316-324), with the modification that random hexamers were substituted for oligo(dT) as primers for cDNA synthesis. (Commercially-available kits (for example, from GIBCO/BRL, Gaithersburg, Md.) can be advantageously modified for making cDNA using random hexamers.) PCR is then performed using the following primers: […]
# as §1
# MDR1 [4] = assay type: cell-based, human
# Experimental: as §2, §3, §4, §1
# MDR1 gene expression was evaluated by a functional assay for Rh123
# P-glycoprotein [5] = target: P-glycoprotein (Homo sapiens, UniProt P08183); test: Rh123 accumulation assay of P-glycoprotein activity in human PBL; conditions: human PBL
# P-glycoprotein (Homo sapiens, UniProt P08183), sequence (P08183 whole entry): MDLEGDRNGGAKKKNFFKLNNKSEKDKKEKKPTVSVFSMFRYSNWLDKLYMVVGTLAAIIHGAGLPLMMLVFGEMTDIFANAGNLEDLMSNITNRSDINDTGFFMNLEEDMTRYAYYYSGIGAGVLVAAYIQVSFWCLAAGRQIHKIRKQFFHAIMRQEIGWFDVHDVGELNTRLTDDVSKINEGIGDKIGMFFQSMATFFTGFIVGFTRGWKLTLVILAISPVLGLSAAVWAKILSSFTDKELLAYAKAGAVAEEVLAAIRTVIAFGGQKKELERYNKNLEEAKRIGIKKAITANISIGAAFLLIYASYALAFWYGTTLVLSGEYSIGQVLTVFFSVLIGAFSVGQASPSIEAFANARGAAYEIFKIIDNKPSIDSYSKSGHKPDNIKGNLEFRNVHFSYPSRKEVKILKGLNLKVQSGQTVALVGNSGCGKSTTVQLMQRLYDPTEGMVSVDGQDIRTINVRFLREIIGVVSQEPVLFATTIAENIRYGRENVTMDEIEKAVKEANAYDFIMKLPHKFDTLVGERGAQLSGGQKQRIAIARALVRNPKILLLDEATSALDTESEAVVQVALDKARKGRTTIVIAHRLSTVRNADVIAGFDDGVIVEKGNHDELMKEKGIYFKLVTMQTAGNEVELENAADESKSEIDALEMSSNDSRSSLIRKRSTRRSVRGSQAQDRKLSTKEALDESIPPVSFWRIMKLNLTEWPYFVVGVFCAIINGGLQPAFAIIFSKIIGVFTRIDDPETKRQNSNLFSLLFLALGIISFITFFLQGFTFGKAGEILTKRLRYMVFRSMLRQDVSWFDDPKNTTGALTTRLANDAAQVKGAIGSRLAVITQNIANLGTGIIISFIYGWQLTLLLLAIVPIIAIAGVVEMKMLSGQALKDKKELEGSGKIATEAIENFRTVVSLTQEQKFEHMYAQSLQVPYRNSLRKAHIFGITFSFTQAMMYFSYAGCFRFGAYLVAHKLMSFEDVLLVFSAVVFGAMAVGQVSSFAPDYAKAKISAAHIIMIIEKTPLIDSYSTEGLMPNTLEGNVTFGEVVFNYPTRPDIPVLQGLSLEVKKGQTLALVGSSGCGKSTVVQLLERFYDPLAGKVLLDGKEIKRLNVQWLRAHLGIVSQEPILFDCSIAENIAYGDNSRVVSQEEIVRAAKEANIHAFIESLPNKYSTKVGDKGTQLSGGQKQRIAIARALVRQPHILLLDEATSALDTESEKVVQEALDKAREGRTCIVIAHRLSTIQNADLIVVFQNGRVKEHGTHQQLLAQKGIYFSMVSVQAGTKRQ
# Experimental: KG1 cell line was maintained in Iscove's modified Dulbecco medium with 20% fetal calf serum (FCS) and 2 mM L-glutamine, 100 units/ml penicillin and 100 μg/ml streptomycin (GIBCO Laboratories, Grand Island, N.Y.).
# A functional assay was used to detect changes in P-glycoprotein activity in human PBL treated with different agents that induce lymphoid differentiation or activation, based on flow cytometric analysis of cellular accumulation of Rh123, which is a P-glycoprotein-transported fluorescent mitochondrial dye. In this assay, cells expressing little or no P-glycoprotein stain brightly with Rh123, whereas cells with higher levels of P-glycoprotein activity appear Rh123-dull. […] Since the best-known cellular effect of TPA is the stimulation of PKC, it was also tested whether DOG, a cell-permeable diacylglycerol and a physiological stimulant of PKC, would have an effect on Rh123 accumulation in PBL.
# MDR1 [6] = system: MDR1; parameters: key to the marks not given beside the values
# P-glycoprotein [7] = test: UIC2 antibody staining of P-glycoprotein on the cell surface; assay type: cell-based; conditions: human PBL
# Experimental: as §3
# To determine if the observed effect of PKC stimulants on P-glycoprotein activity could be due to an increase in P-glycoprotein expression, untreated and TPA-treated PBL were stained by indirect immunofluorescence labeling with a monoclonal antibody UIC2 that recognized an extracellular epitope of P-glycoprotein encoded by the human MDR1 gene. […]
# [8] = system: hormone-refractory prostate cancer; conditions: continuous infusion, peak of 300 μg/ml at end of 14 days; cited from earlier work
compound,measurement,setting,value
"CCCCCCCCCCCCC/C=C/[C@H](O)[C@@H](N)CO (relative stereo) [D,L-threo-sphingosine]",inhibition of Ara-C induced MDR1 expression,MDR1 [1],little or no capacity to inhibit Ara-C induced MDR1 expression; also recorded: ineffective in inhibiting Ara-C induced MDR1 expression
same,inhibition of Ara-C induced MDR1 expression,"MDR1 [1]; H9 cells, 25 μM Ara-C 10 h",-
same,cellular toxicity,H9 cells,higher concentrations induced cellular toxicity
CCCCCCCCCCCCCCCCSCC(COC)COP(=O)([O-])OCC[N+](C)(C)C (stereo not drawn) [BM41440],"MTD, oral",[2],5 mg/kg body weight
CC1CNCCN1S(=O)(=O)c1cccc2cnccc12 (stereo not drawn) [H7],IC50,protein kinase A,3000 nM
same,IC50,PKC,6 µM
same,prevention of MDR1 induction by chemotherapeutic drugs,MDR1 [1]; 50 μM,prevent MDR1 induction
N=C(N)NCCNS(=O)(=O)c1cccc2cnccc12 [HA1004],IC50,protein kinase A,2300 nM
same,IC50,PKC,40 µM
same,inhibition of MDR1 induction by Ara-C,"MDR1 [1]; H9 cells, 60 μM HA1004, 50 μM Ara-C 22 hr",no significant inhibition
same,prevention of MDR1 induction,MDR1 [1]; protein kinase inhibitor inactive against PKC,totally ineffective in preventing MDR1 induction
CC1CN(S(=O)(=O)c2cccc3cnccc23)CCN1 (stereo not drawn) [IsoH7],inhibition of drug-induced MDR1 expression,MDR1 [1]; IsoH7,No significant inhibition
same,effect on protein kinases relative to H7,protein kinases,10 fold
"CCCCCCCCCCCCCC(=O)O[C@@H]1[C@@H](C)[C@@]2(O)[C@@H](C=C(CO)C[C@]3(O)C(=O)C(C)=C[C@@H]23)[C@@H]2C(C)(C)[C@]12OC(C)=O [TPA, 12-o-tetradecanoylphorbol-13-acetate]",increase of MDR1 expression,MDR1 [3]; EJ bladder carcinoma cells,increase of MDR1 expression
same,induction of MDR1 mRNA and P-glycoprotein,MDR1 [3]; H9 cells,clear-cut induction of MDR1 mRNA and P-glycoprotein
same,time after addition at which MDR1 mRNA became detectable,"MDR1 [3]; H9 cells, TPA",2 h
same,time until which MDR1 mRNA continued to increase,"MDR1 [3]; H9 cells, TPA",≥ 5 h
same,MDR1 expression induced by TPA alone,"MDR1 [3]; H-9 cells, 10 ng/ml overnight",efficiently induced readily detectable MDR1 expression
same,induction of MDR1 mRNA and P-glycoprotein,MDR1 [3]; K562 cells,clear-cut induction of MDR1 mRNA and P-glycoprotein
same,increase of MDR1 expression,MDR1 [3]; MCF-7 breast carcinoma cells,increase of MDR1 expression
same,MDR1 mRNA levels,"MDR1 [3]; human PBL, PCR",corresponding increase in MDR1 mRNA levels
same,"MDR1 expression, TPA-treated",MDR1 [4],-
same,"MDR1 expression, TPA-treated",MDR1 [4]; 0.001 ug/mL,++
same,"MDR1 expression, TPA-treated",MDR1 [4]; 0.01 ug/mL,++
same,"MDR1 expression, TPA-treated",MDR1 [4]; 0.1 ug/mL,+++
same,"MDR1 expression, TPA-treated","MDR1 [4]; EJ (bladder carcinoma), untreated +, assay F",++
same,"MDR1 expression, TPA-treated","MDR1 [4]; HT 1080 (fibrosarcoma), untreated -, assays F, R",-
same,"MDR1 expression, TPA-treated","MDR1 [4]; MCF-7 (breast carcinoma), untreated -, assay R",+
same,"MDR1 expression, TPA-treated","MDR1 [4]; Molt-4 (T-cell leukemia), untreated -, assay F",-
same,"MDR1 expression, TPA-treated","MDR1 [4]; THP-1, untreated -, assay F",-
same,effect on P-glycoprotein activity (Rh123 accumulation),P-glycoprotein [5],significant increase in the number of Rh123-dull cells
same,"MDR1 expression, TPA-treated",MDR1 [6],++
same,"MDR1 expression, TPA-treated","MDR1 [6]; mouse FL4 (thymoma), untreated ++, assay F",+++
same,P-glycoprotein on the cell surface,P-glycoprotein [7],markedly increased the levels of P-glycoprotein on the cell surface
CCCCCCCCCCCCCCCCSCC(COC)COP(=O)([O-])OCC[N+](C)(C)C (stereo not drawn) [ilmofosine],"MTD, oral",[2],200 mg/day
Cc1ccc(C(=O)Nc2ccc(S(=O)(=O)O)c3cc(S(=O)(=O)O)cc(S(=O)(=O)O)c23)cc1NC(=O)c1cccc(NC(=O)Nc2cccc(C(=O)Nc3cc(C(=O)Nc4ccc(S(=O)(=O)O)c5cc(S(=O)(=O)O)cc(S(=O)(=O)O)c45)ccc3C)c2)c1 [suramin],activity in hormone-refractory prostate cancer,[8],shown activity in hormone-refractory prostate cancer
